Measurements as given in publication PMC12207590, “Substrate Specificity of the Organic Cation Transporters MATE1 and MATE2K and Functional Overlap with OCT1 and OCT2” (Journal of Medicinal Chemistry, 2025).
Read-outs that look alike come from different tables or passages of the source.

Key:
[1] = target: MATE2K (Homo sapiens, UniProt Q86VL8); experiment: Uptake ratio in MATE2K-overexpressing HEK293 cells vs empty vector (2.5 μM, 1 min, HPLC-MS/MS); format: cell-based
[2] = target: T1, MATE1 (Homo sapiens, UniProt Q96FL8); experiment: Uptake ratio in MATE1-overexpressing HEK293 cells vs empty vector (2.5 μM, 1 min, HPLC-MS/MS); format: cell-based
T1 sequence (Q96FL8 1-570): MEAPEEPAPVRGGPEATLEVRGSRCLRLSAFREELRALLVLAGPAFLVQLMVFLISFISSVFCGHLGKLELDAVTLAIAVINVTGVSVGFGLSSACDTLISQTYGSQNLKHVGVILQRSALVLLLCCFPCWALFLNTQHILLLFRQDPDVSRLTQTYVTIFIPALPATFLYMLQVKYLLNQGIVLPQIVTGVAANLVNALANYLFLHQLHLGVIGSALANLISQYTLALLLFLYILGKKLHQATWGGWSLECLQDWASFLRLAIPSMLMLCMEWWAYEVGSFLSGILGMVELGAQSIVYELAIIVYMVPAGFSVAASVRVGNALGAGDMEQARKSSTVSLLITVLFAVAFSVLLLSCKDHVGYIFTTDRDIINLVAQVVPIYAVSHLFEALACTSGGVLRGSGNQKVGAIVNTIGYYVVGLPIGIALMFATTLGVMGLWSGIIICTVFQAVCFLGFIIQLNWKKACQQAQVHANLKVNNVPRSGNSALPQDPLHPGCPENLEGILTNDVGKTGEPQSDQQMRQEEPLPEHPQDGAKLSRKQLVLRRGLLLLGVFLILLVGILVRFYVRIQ

[3] = fold uptake over empty vector, 2.5 μM, 1 min
[4] = uptake ratio MATE2K-overexpressing vs empty-vector HEK293 cells, 2.5 μM, 1 min, mean
[5] = uptake ratio MATE1-overexpressing vs empty-vector HEK293 cells, 2.5 μM, 1 min, mean
[6] = mean ratio of uptake in MATE2K-overexpressing HEK293 cells vs empty vector, 2.5 μM, 1 min
[7] = mean ratio of uptake in MATE1-overexpressing HEK293 cells vs empty vector, 2.5 μM, 1 min

Chain of MATE2K (Q86VL8 1-566 isoform Q86VL8-3): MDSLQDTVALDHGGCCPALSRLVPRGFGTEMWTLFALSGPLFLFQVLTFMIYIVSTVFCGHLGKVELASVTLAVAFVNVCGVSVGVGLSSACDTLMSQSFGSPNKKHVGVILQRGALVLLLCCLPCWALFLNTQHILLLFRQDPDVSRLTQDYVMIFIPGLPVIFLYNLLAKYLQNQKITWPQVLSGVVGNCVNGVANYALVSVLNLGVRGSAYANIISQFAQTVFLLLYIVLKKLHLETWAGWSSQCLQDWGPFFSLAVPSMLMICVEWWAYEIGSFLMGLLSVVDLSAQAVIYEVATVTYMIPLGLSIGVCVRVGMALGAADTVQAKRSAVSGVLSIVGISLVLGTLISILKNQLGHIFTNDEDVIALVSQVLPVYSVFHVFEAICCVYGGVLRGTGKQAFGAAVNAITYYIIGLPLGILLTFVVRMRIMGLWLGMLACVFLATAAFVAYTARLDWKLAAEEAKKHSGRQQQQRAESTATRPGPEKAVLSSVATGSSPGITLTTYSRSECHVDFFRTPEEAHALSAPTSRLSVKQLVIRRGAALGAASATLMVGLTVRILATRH

Compound: NCc1ccc(O)cc1
- MATE2K ratio [1]: 1.09
- MATE1 ratio [2]: 1.48

Compound: COc1ccc2[nH]cc(C[C@H](N)C(=O)O)c2c1
- MATE2K ratio [1, 3]: 1.10
- MATE1 ratio [2, 3]: 0.89

Compound: OCCc1ccccc1
- MATE2K ratio [1, 3]: 1.20
- MATE1 ratio [2, 3]: 1.39

Compound: CNC[C@H](O)c1ccc(O)c(O)c1 (racemic) [Epinephrine (rac), Epinephrine]
- MATE2K ratio [1, 3]: 3.27
- MATE1 ratio [2, 3]: 18.70

Compound: C[C@H](NCCc1ccc(O)cc1)[C@H](O)c1ccc(O)cc1 (racemic) [Ritodrine]
- MATE2K ratio [1, 3]: 2.23
- MATE2 [1, 4]: 2.23
- MATE1 ratio [2, 3]: 8.03
- MATE1 [2, 5]: 8.03

Compound: N[C@@H]1C[C@H]1c1ccccc1 (racemic) [Tranylcypromine]
- MATE2 [1]: 1.98
- MATE1 [2]: 1.45

Compound: CC(C)(C)NCC(O)COc1nsnc1N1CCOCC1 (stereo in doubt) [Timolol (R)]
- MATE2 [1, 4]: 0.96
- MATE1 [2, 5]: 0.94

Compound: Cc1ccc(O)c(C(CCN(C(C)C)C(C)C)c2ccccc2)c1 (stereo in doubt) [Tolterodine (S)]
- MATE1 [2]: 1.16

Compound: N=C(Nc1ccccc1)Nc1ccccc1 [1,3-Diphenylguanidine]
- MATE2 (uptake ratio) [1]: 1.27
- MATE2K ratio [1]: 1.27
- MATE1 (uptake ratio) [2]: 1.53
- MATE1 ratio [2]: 1.53

Compound: N=C(N)NC(=N)Nc1ccc(Cl)cc1 [1-(4-Chlorophenyl)biguanide]
- MATE2 (uptake ratio) [1]: 3.82
- MATE2K ratio [1]: 3.82
- MATE1 (uptake ratio) [2]: 6.97
- MATE1 ratio [2]: 6.97

Compound: C[n+]1ccc(-c2ccccc2)cc1 [1-Methyl-4-phenylpyridinium]
- MATE2 (uptake ratio) [1]: 9.05
- MATE2K ratio [1]: 9.05
- MATE2K ratio in this study [1]: 9.05
- MATE1 (uptake ratio) [2]: 23.35
- MATE1 ratio [2]: 23.35
- MATE1 ratio in this study [2]: 23.35

Compound: Cn1c(=O)[nH]c2nc[nH]c2c1=O [1-Methylxanthine]
- MATE2 (uptake ratio) [1]: 0.96
- MATE2K ratio [1]: 0.96
- MATE1 (uptake ratio) [2]: 1.08
- MATE1 ratio [2]: 1.08

Compound: CCC(Cc1ccc2c(c1)OCO2)NC (stereo not shown) [2-Methylamino-1-(3,4-methylendioxyphenyl)butan]
- MATE2 (uptake ratio) [1]: 1.24
- MATE2K ratio [1]: 1.24
- MATE1 (uptake ratio) [2]: 1.35
- MATE1 ratio [2]: 1.35

Compound: CCC(C)C(=O)OC(CC(=O)[O-])C[N+](C)(C)C (stereo not shown) [2-Methylbutyrylcarnitine]
- MATE2K ratio [1, 3]: 1.24
- MATE2 (uptake ratio) [1, 6]: 1.24
- MATE1 ratio [2, 3]: 0.61
- MATE1 (uptake ratio) [2, 7]: 0.61

Compound: NCCc1ccccc1 [2-Phenylethylamine]
- MATE2K ratio [1, 3]: 1.43
- MATE2 (uptake ratio) [1, 6]: 1.43
- MATE1 ratio [2, 3]: 1.39
- MATE1 (uptake ratio) [2, 7]: 1.39

Compound: COc1cc(CCN)ccc1O [3-Methoxy-p-tyramine]
- MATE2 (uptake ratio) [1]: 1.39
- MATE2K ratio [1]: 1.39
- MATE1 (uptake ratio) [2]: 4.05
- MATE1 ratio [2]: 4.05

Compound: N=C(N)N1Cc2ccccc2C(O)C1 (stereo not shown) [4-Hydroxydebrisoquine]
- MATE2K ratio [1, 3]: 3.34
- MATE2 (uptake ratio) [1, 6]: 3.34
- MATE1 ratio [2, 3]: 9.59
- MATE1 (uptake ratio) [2, 7]: 9.59

Compound: C#CCN(C)[C@H](C)Cc1ccccc1 [Selegiline (S), Selegiline]
- MATE2 [1]: 1.08

Compound: CCN1CCC[C@H]1CNC(=O)c1cc(S(N)(=O)=O)ccc1OC [Sulpiride (S)]
- MATE2 [1]: 18.54

Compound: CCOc1ccccc1OCCN[C@H](C)Cc1ccc(OC)c(S(N)(=O)=O)c1 [Tamsulosin]
- MATE1 [2, 5]: 1.4

Compound: NCCS(=O)(=O)O [Taurine]
- MATE2 [1, 4]: 1.2

Compound: NC(=O)[C@@H]1CCCN1C(=O)[C@H](Cc1cnc[nH]1)NC(=O)[C@@H]1CCC(=O)N1 [Thyrotropin-Releasing-Hormon]
- MATE1 [2, 5]: 1.71

Compound: Cc1ccc(O)c([C@H](CCN(C(C)C)C(C)C)c2ccccc2)c1 [Tolterodine (R)]
- MATE2 [1]: 1.06

Compound: NCCNCCNCCN [Triethylentetramine]
- MATE1 [2, 5]: 0.65

Compound: NCCc1c[nH]c2ccccc12 [Tryptamine]
- MATE1 [2]: 2.21

Compound: Cc1cc(C(C)(C)C)cc(C)c1CC1=NCCN1 [Xylometazoline]
- MATE1 [2]: 1.55
